Positions of bridges follow the written chain, without caps; N, C: chain ends. Residues, ends and D or L forms follow the SMILES beside them. No end group written: not given here.
What was measured:
[1] = biological target: T1, hGalR2 (Homo sapiens, UniProt O43603); assay: SRE-Luc receptor activation assay, hGalR2; assay type: cell-based; details: for hGalR2 Emax: Relative to hSPX Emax; for activity on GalR2, in words: full-dose SRE-Luc; for effect of cysteine mutation on receptor activation of GalR2: single dose (1 μM, 6 hours), compared with wild type hSPX
T1 construct: host or cells: HEK293
T1 sequence (O43603 1-387): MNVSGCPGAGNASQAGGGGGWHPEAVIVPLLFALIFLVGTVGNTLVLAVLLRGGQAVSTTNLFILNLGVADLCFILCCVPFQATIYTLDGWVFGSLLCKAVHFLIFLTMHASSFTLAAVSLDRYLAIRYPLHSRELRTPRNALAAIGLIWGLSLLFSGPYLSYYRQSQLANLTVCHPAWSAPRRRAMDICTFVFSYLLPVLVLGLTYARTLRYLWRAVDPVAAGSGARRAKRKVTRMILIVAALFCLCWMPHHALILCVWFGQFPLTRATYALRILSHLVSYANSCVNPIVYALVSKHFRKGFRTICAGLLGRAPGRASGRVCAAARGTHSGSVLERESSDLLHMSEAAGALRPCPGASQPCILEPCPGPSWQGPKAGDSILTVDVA

[2] = biological target: T2, hGalR1 (Homo sapiens, UniProt P47211); assay: SRE-Luc receptor activation assay, hGalR1; assay type: cell-based; details: for hGalR1 Emax: Relative to hGAL Emax; for activity on GalR1, in words: full-dose SRE-Luc
T2 sequence (P47211 1-349): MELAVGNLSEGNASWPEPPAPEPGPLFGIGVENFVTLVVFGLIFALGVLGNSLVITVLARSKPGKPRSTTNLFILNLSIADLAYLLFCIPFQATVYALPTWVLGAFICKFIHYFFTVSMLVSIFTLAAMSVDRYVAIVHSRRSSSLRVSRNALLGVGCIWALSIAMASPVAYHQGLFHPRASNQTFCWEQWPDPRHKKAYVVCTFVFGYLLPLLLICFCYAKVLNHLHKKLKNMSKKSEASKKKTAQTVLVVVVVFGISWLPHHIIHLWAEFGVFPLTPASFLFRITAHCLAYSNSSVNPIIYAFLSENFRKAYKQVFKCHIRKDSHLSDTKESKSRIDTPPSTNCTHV

[3] = biological target: T3, hGalR3 (Homo sapiens, UniProt O60755); assay: SRE-Luc receptor activation assay, hGalR3; assay type: cell-based; details: for hGalR3 Emax: Relative to hSPX Emax; for activity on GalR3, in words: full-dose SRE-Luc; for effect of cysteine mutation on receptor activation of GalR3: single dose (1 μM, 6 hours), compared with wild type hSPX
T3 construct: host or cells: HEK293
T3 sequence (O60755 1-368): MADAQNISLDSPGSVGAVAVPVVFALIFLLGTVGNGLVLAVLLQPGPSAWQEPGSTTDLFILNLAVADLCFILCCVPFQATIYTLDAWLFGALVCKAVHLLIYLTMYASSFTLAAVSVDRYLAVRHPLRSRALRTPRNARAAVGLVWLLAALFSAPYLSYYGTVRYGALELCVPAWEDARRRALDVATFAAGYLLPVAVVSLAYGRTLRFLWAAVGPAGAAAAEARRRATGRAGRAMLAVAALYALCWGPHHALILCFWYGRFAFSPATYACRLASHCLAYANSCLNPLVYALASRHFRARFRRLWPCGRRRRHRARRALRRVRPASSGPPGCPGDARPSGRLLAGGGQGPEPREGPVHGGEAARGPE

[4] = In vitro serum stability assay (RP-HPLC); assay type: in vitro ADME, rat; details: rat serum in RPMI 1640, 37° C., 100 μg/mL; read-out: serum half-life (t1/2)
Protocol: The serum stability of CSAs was tested using an in vitro assay followed by reverse-phase high-performance liquid chromatography (RP-HPLC) analysis (FIGS. 33-38).
750 μL RPMI medium 1640 (Thermo Fisher Scientific) was mixed with […] rat serum, and incubated at 37° C. for 15 min before adding peptide. The peptide dissolved in water was added into the reaction buffer to make a final concentration of 100 μg/mL. At each time point (5, 15, 30, 60, 120, 240, and 480 min), 100 μL reaction solution were taken, and mixed with 200 μL 6% trichloroacetic acid (TCA, Sigma-Aldrich). The resulting cloudy solution was cooled at 4° C. for 15 min, and centrifuged for 10 mins at 13,000 rpm. The supernatant was then analyzed by RP-HPLC. The extent of intact peptide was calculated based on the peak area and was normalized using a control sample.

[5] = HEK293 cells transfected with hGalR1, Gqi, SRE-Luc, 6 h treatment, full-dose

Compound | hGalR2 Emax [1] | hGalR1 EC50 [2, 5] | hGalR1 Emax [2] | activity on GalR2, in words [1] | effect of cysteine mutation on receptor activation of GalR2 [1] | hGalR3 Emax [3] | activity on GalR3, in words [3] | effect of cysteine mutation on receptor activation of GalR3 [3] | half-life at 100 μg/mL [4] | EC50 [1] | hGalR3 EC50 ([3]; HEK293 cells transfected with hGalR3, Gqi, SRE-Luc, 6 h treatment, full-dose) | activity on GalR1, in words [2] | EC50 [3] | EC50 [2, 5]
CSCC[C@@H]1NC(=O)[C@H](C)NC(=O)[C@H](CCC(N)=O)NC(=O)[C@@H](NC(=O)[C@@H](NC(=O)[C@H](Cc2c[nH]c3ccccc23)NC(=O)[C@@H](N)CC(N)=O)[C@@H](C)O)CSSC[C@@H](C(=O)N[C@@H](CCC(N)=O)C(N)=O)NC(=O)CNC(=O)[C@H](CCCCN)NC(=O)[C@H](CC(C)C)NC(=O)[C@H](Cc2ccc(O)cc2)NC(=O)[C@H](CC(C)C)NC1=O [LH102] (H-NWTCQAMLYLKGCQ-NH2; disulfide 4-13; N-terminus assumed) | 1.08 | N.M. | N.M. |  |  |  |  |  |  |  |  |  |  | 
CSCC[C@H](NC(=O)[C@H](C)NC(=O)[C@H](CCC(N)=O)NC(=O)[C@H](CS)NC(=O)[C@@H](NC(=O)[C@H](Cc1c[nH]c2ccccc12)NC(=O)[C@@H](N)CC(N)=O)[C@@H](C)O)C(=O)N[C@@H](CC(C)C)C(=O)N[C@@H](Cc1ccc(O)cc1)C(=O)N[C@@H](CC(C)C)C(=O)N[C@@H](CCCCN)C(=O)NCC(=O)N[C@@H](C)C(=O)N[C@@H](CCC(N)=O)C(N)=O [hSPX (C4)] (H-NWTCQAMLYLKGAQ-NH2; N-terminus assumed) | 0.98 | N.M. | N.M. | little effect on the potency | minimum effects | 0.91 | little effect on the potency | minimum effects |  |  |  |  |  | 
CSCC[C@H](NC(=O)[C@H](C)NC(=O)[C@H](CCC(N)=O)NC(=O)[C@@H]1CCCN1C(=O)[C@@H](NC(=O)[C@H](Cc1c[nH]c2ccccc12)NC(=O)[C@@H](N)CC(N)=O)[C@@H](C)O)C(=O)N[C@@H](CC(C)C)C(=O)N[C@@H](Cc1ccc(O)cc1)C(=O)N[C@@H](CC(C)C)C(=O)N[C@@H](CCCCN)C(=O)NCC(=O)N[C@@H](CS)C(=O)N[C@@H](CCC(N)=O)C(N)=O [hSPX (C13)] (H-NWTPQAMLYLKGCQ-NH2; N-terminus assumed) | 0.87 | N.M. | N.M. | little effect on the potency | minimum effects | 0.88 | little effect on the potency | minimum effects |  |  |  |  |  | 
C10: hSPX mutant with single mutation to cysteine at position 10 (NWTPQAMLYCKGAQ-NH2) |  |  |  |  | severely impaired bioactivity |  |  | severely impaired bioactivity |  |  |  |  |  | 
CC(=O)N[C@H]1CSSC[C@@H](C(=O)N[C@@H](Cc2c[nH]cn2)C(=O)N[C@@H](C)C(=O)N[C@H](C(N)=O)C(C)C)NC(=O)CNC(=O)[C@H](CC(C)C)NC(=O)[C@H](CC(C)C)NC(=O)[C@H](Cc2ccc(O)cc2)NC(=O)CNC(=O)[C@H](C)NC(=O)[C@H](CO)NC(=O)[C@H](CC(N)=O)NC(=O)[C@H](CC(C)C)NC(=O)[C@H]([C@@H](C)O)NC(=O)[C@H](Cc2c[nH]c3ccccc23)NC1=O [LH201 (Ac)] (Ac-CWTLNSAGYLLGCHAV-NH2; disulfide 1-13) | 1.16 | N.M. | 0.22 |  |  | 0.20 | No activity |  | 51.9 min | 480 nM | N.M. | No activity |  | 
C14: hSPX mutant with single mutation to cysteine at position 14 (NWTPQAMLYLKGAC-NH2) |  |  |  |  | severely impaired bioactivity |  |  | severely impaired bioactivity |  |  |  |  |  | 
CC(C)C[C@H](NC(=O)CNC(=O)[C@H](CC(N)=O)NC(=O)[C@H](CCCCN)NC(=O)[C@H](CC(=O)O)NC(=O)[C@H](CO)NC(=O)[C@H](Cc1ccccc1)NC(=O)[C@H](CO)NC(=O)[C@H](CCCNC(=N)N)NC(=O)[C@H](Cc1c[nH]cn1)NC(=O)[C@H](CC(N)=O)NC(=O)CNC(=O)[C@@H](NC(=O)[C@H](C)NC(=O)[C@H](Cc1c[nH]cn1)NC(=O)[C@@H]1CCCN1C(=O)CNC(=O)[C@H](CC(C)C)NC(=O)[C@H](CC(C)C)NC(=O)[C@H](Cc1ccc(O)cc1)NC(=O)CNC(=O)[C@H](C)NC(=O)[C@H](CO)NC(=O)[C@H](CC(N)=O)NC(=O)[C@H](CC(C)C)NC(=O)[C@@H](NC(=O)[C@H](Cc1c[nH]c2ccccc12)NC(=O)CN)[C@@H](C)O)C(C)C)C(=O)N[C@H](C(=O)N[C@@H](CO)C(N)=O)[C@@H](C)O [hGAL, reference compound] | 0.94 |  |  |  |  | 0.68 |  |  |  |  |  |  |  | 
CC(C)C[C@@H]1NC(=O)[C@H](CC(C)C)NC(=O)[C@H](Cc2ccc(O)cc2)NC(=O)CNC(=O)[C@H](C)NC(=O)[C@H](CO)NC(=O)[C@H](CC(N)=O)NC(=O)[C@H](CC(C)C)NC(=O)[C@H]([C@@H](C)O)NC(=O)[C@H](Cc2c[nH]c3ccccc23)NC(=O)[C@@H](N)CSSC[C@@H](C(=O)N[C@@H](Cc2c[nH]cn2)C(=O)N[C@@H](C)C(=O)N[C@H](C(N)=O)C(C)C)NC(=O)CNC1=O [LH201] (H-CWTLNSAGYLLGCHAV-NH2; disulfide 1-13) | 1.00 |  | 0.35 | kept full activity on GalR2 |  | 0.55 | only able to activate GalR3 at high doses |  | 169 min | 120 nM |  | lost all activity on GalR1 | > 10 µM | > 10 µM
CSCC[C@H](NC(=O)[C@H](C)NC(=O)[C@H](CCC(N)=O)NC(=O)[C@@H]1CCCN1C(=O)[C@@H](NC(=O)[C@H](Cc1c[nH]c2ccccc12)NC(=O)[C@@H](N)CS)[C@@H](C)O)C(=O)N[C@@H](CC(C)C)C(=O)N[C@@H](Cc1ccc(O)cc1)C(=O)N[C@@H](CC(C)C)C(=O)N[C@@H](CCCCN)C(=O)NCC(=O)N[C@@H](C)C(=O)N[C@@H](CCC(N)=O)C(N)=O [hSPX (C1)] (H-CWTPQAMLYLKGAQ-NH2; N-terminus assumed) | 1.05 | N.M. | N.M. | little effect on the potency | minimum effects | 1.00 | little effect on the potency | minimum effects |  |  |  |  |  | 
CC(C)C[C@H](NC(=O)[C@H](CC(C)C)NC(=O)[C@H](Cc1ccc(O)cc1)NC(=O)CNC(=O)[C@H](C)NC(=O)[C@H](CO)NC(=O)[C@H](CC(N)=O)NC(=O)[C@H](CC(C)C)NC(=O)[C@@H](NC(=O)[C@H](Cc1c[nH]c2ccccc12)NC(=O)CN)[C@@H](C)O)C(=O)NCC(=O)N1CCC[C@H]1C(=O)N[C@@H](Cc1c[nH]cn1)C(=O)N[C@@H](C)C(=O)N[C@H](C(N)=O)C(C)C [hGAL (1-16), reference compound] | 1.02 |  |  |  |  | 0.45 |  |  | 14.1 min |  |  |  | > 10 µM | 
C12: hSPX mutant with single mutation to cysteine at position 12 (NWTPQAMLYLKCAQ-NH2) |  |  |  |  | severely impaired bioactivity |  |  | severely impaired bioactivity |  |  |  |  |  | 

Source: patent publication US10376555B2, “Identification of cyclic peptide agonists of galanin receptor 2 and 3 guided by spexin solution structure” (Hong Kong Baptist University, priority 2017, dated 2019)
